Reference: patent US9045527B2, “Small molecule conjugates with dimetal species for protein inhibition” (WILLIAM MARSH RICE UNIVERSITY, priority 2012, dated 2015)
“Also recorded” adds a separate entry of the source. One block for each molecule: values may come before it. Where no end group is shown, it is not given here.

What was measured:
K3a,eRh2 coiled coil = experiment: Thermal denaturation of metallopeptide coiled coils monitored by CD; type: physicochemical; details: for melting temperature (Tm) of coiled coil: equimolar mixture of E3X peptide and K3a,eRh2 in aq buffer, CD 222 nm
Method: FIG. 4 is a table detailing the thermal denaturation of metallopeptide coiled coils. The following standard conditions: equimolar mixtures of E3X and K3a,eRh2 in aq buffer (pH 5.9-6.2) were monitored by CD (222 nm) from −5 to 95° C. at 1° C./min. The peptide concentrations are 100 μM. The CD monitored is at 225 nm and in certain embodiments, the peptide concentration is 33 μM.
Rhodium(II) centers are capable of forming stabilizing secondary contacts at the periphery of a protein binding interface while examining the coiled-coil assembly of rhodium(II) metallopeptides with histidine-containing peptides. A rhodium(II) center linked to a coil at positions a and e of a heptad repeat abcdefg (See FIG. 4) would be proximal to position g of the complementary peptide, E3gX.
Circular Dichroism Spectroscopy: Thermal denaturation experiments (−5-105° C. with a gradient of 1° C./min) were performed on a Jasco-J810 spectropolarimeter with a Peltier temperature controller (Jasco PTC423S). Solutions of 1:1 E3-peptide and K3-metallopeptide (both components 100 or 33 μM) in aqueous buffer in a 0.1 cm sealed cell were analyzed, and ellipticity data were acquired at 222 nm (red data points, S-5). When imidazole additive was utilized, ellipticity data were acquired at 225 nm. Temperature denaturation curves were fit to a two-state unfolding model and plotted (black line, S-5) as fraction unfolded vs. temperature as described previously by Lavigne et al.8 Error associated with the non-linear least squared-determined Tm was determined using the freely available “Solver Statistics” macro for Microsoft Excel.

CAL PDZ domain = target: T1, CAL PDZ domain (Homo sapiens, UniProt Q9HD26); experiment: HSQC footprinting of 15N-CALP; type: binding; details: 125-μM peptide, 2.5% (v/v) DMSO
T1 construct: Expression and purification of the WT and mutant CAL PDZ domains were performed according to commonly described and known methods; made in house
Method: HSQC spectra of 15N-CALP determined separately (red) and in the presence of 125-μM E^RhVQSTRL (SEQ ID NO:7) metallopeptide (green) in 2.5% (v/v) DMSO.
The chemical shifts (δ) are reported in units of part per million (ppm) relative to solvent peak. HSQC footprinting: 25 μM N-labeled CAL PDZ protein was also subjected to H, N heteronuclear single quantum correlation spectroscopy (HSQC) analysis, as described, except that tris(2-carboxyethyl)phosphine was omitted from the final dialysis buffers. […] HSQC backbone crosspeaks were assigned by comparison with the previously assigned CALP apo spectrum.

N1P1 = N1P1 affinity (uM)
Method: Table printed on a drawing sheet, Figure 9B
Title: Metallopeptide ligands for PDZ domains
Head of the field: N1P1 affinity (uM)
The patent's description of the figure: FIG. 9A is a table of metallopeptide inhibitors of CALP. [a], inhibitor equilibrium dissociation (Ki) constants were determined for cognate peptide/metallopeptide pairs. […] In embodiment, [c]
First copying reader's note: The fold values (22x, 95x and so on) are printed beside brackets joining each peptide/Rh-peptide pair and are repeated in both rows; the H301A block stands apart at the right, has no printed unit, and its rows are matched to the sequences by their height on the sheet.
Where the first naming reader finds the target: head: N1P1 affinity (uM)

full-length CAL = target: T2, full-length CAL (Homo sapiens, UniProt Q9HD26); experiment: Capture (pulldown) inhibition assay in epithelial cell lysate; type: binding; details: CFBE4lo− cell lysates, BT-iCAL36 bait, n=3
T2 construct: Western blot of native CAL was captured from epithelial lysates; endogenous in cells; host or cells: CFBE41o- epithelial cell lysate
Method: Thus, the metalation improves inhibitor potency.
Capture inhibition assays: To determine the ability of inhibitor peptides to displace the interactions of full-length CAL in the presence of the epithelial-cell proteome, a capture inhibition assay was developed. Briefly, using published methods a biotin-conjugated peptide “bait” sequence (BT-iCAL36) was immobilized on streptavidin beads and incubated with clarified lysates of CFBE4lo− cells to capture full-length CAL in the presence of cellular proteins. […] Beads were washed and eluted, and bound proteins were separated by SDS-PAGE and immunoblotted using an α-CAL antibody. Band intensities were separately quantified and averaged (n=3).

CAL PDZ domain (CALP) = target: T3, CAL PDZ domain (CALP) (Homo sapiens, UniProt Q9HD26); experiment: Fluorescence anisotropy inhibition binding assay (displacement of fluorescein-labeled iCAL36 reporter); details: wild-type CALP
T3 construct: Expression and purification of the WT and mutant CAL PDZ domains were performed according to commonly described and known methods; made in house
Method: Protein binding studies: Fluorescence anisotropy inhibition binding assays were performed using standard procedures. […] Following equilibration, fluorescence anisotropy values were determined using a Tecan Infinite M1000 plate reader (n=3). Inhibitor equilibrium dissociation (Ki) constants were estimated as described. DMSO and rhodium(II) acetate were used as negative controls for unlabeled and labeled peptides, respectively.

CALP [1] = target: T4, CALP (Homo sapiens, UniProt Q9HD26); experiment: CALP affinity (uM)
T4 construct: Western blot of native CAL was captured from epithelial lysates; endogenous in cells; host or cells: CFBE41o- epithelial cell lysate
Source text: Head of the field: CALP affinity (uM)

CALP [2] = target: T4, CALP; experiment: Ki (μM)
Source text: Head of the field: Ki (μM)

coiled coil stability (K3a,eRh2 coiled coil; assembly with K3a,eRh2): decreased stability
Molecule: N[C@@H](CS)C(=O)O [E3gC]

mode of inhibition (CAL PDZ domain): competitive inhibitors
Molecule: CC(=O)N[C@@H](CCC(=O)O)C(=O)N[C@H](C(=O)N[C@@H](CCC(N)=O)C(=O)N[C@@H](CO)C(=O)N[C@H](C(=O)N[C@@H](CCCNC(=N)N)C(=O)N[C@@H](CC(C)C)C(=O)O)[C@@H](C)O)C(C)C [EVQSTRL]

Ki (N1P1): > 500 µM
Molecule: CC[C@H](C)[C@H](NC(=O)[C@@H](NC(=O)[C@H](CO)NC(=O)[C@@H](NC(=O)[C@@H]1CCCN1C(=O)[C@H](Cc1c[nH]c2ccccc12)NC(=O)[C@H](CCC(=O)O)NC(C)=O)[C@@H](C)O)[C@@H](C)CC)C(=O)O [EWPTSII]

mode of inhibition (CAL PDZ domain): competitive inhibitors
Molecule: CC(=O)N[C@@H](CCC(=O)O)C(=O)N[C@H](C(=O)N[C@@H](CCC(N)=O)C(=O)N[C@@H](CO)C(=O)N[C@H](C(=O)N[C@@H](CCCNC(=N)N)C(=O)N[C@@H](CC(C)C)C(=O)O)[C@@H](C)O)C(C)C [E^RhVQSTRL]
inhibition of CAL pulldown (full-length CAL): improved inhibition; also recorded: dose-dependent inhibition

Ki (N1P1): > 50 µM
Molecule: CC[C@H](C)[C@H](NC(=O)[C@@H](NC(=O)[C@H](CO)NC(=O)[C@@H](NC(=O)[C@@H]1CCCN1C(=O)[C@H](Cc1c[nH]c2ccccc12)NC(=O)[C@H](CCC(=O)O)NC(C)=O)[C@@H](C)O)[C@@H](C)CC)C(=O)O [E^RhWPTSII]

Molecule: CC(=O)[O-].CC(=O)[O-].CC(=O)[O-].CC(=O)[O-].[Rh+2].[Rh+2] [Rh2(OAc)4, rhodium(II) acetate]
Ki (CAL PDZ domain (CALP); n=3, read-out: Ki (inhibitor equilibrium dissociation constant)): 13 ± 5 µM

CALP affinity (CAL PDZ domain (CALP)): weak CALP affinity
Ki (N1P1): 0.7 µM
Molecule: CC(=O)N[C@H](C(=O)N[C@@H](CCC(N)=O)C(=O)N[C@@H](CC(=O)O)C(=O)N[C@H](C(=O)N[C@@H](CCCNC(=N)N)C(=O)N[C@@H](CC(C)C)C(=O)O)[C@@H](C)O)C(C)C [VQDTRL]

Ki (CALP [1]): > 1000 µM
Molecule: Ac-EVQSTRF-OH [EVQSTRF]

Ki (CALP [1]): > 15 µM
Molecule: Ac-EVQSTRF-OH [E^RhVQSTRF]

Ki (CALP [2]): > 500 µM
Molecule: Ac-QLDVTR-OH [QLDVTR]

Molecule: E3cH: E3 coil peptide with histidine moved to position c (Ac-EISALEKEISHLEQEISALEK)
melting temperature (Tm) of coiled coil (K3a,eRh2 coiled coil): 47.0 °C

Molecule: E3gE: E3 coil peptide with glutamate at position g (Ac-EISALEKEISALEQEISALEK)
melting temperature (Tm) of coiled coil (K3a,eRh2 coiled coil): 50.2 °C

Molecule: E3gF: E3 coil control peptide with non-coordinating phenylalanine at position g (Ac-EISALEKFISALEQEISALEK) [reference compound]
melting temperature (Tm) of coiled coil (K3a,eRh2 coiled coil): 39.5 °C

Molecule: E3gM: E3 coil peptide with methionine at position g (Ac-EISALEKMISALEQEISALEK)
melting temperature (Tm) of coiled coil (K3a,eRh2 coiled coil): > 70 °C

CALP affinity (CAL PDZ domain (CALP)): comparable
Molecule: QLD^RhVTR: metallopeptide derived from a non-binding, scrambled control sequence (Ac-QLDVTR; also: rhodium(II) metalated, site not placed)
